≈ marks a conversion by molar mass, not a printed value. Read-outs that look alike come from different tables or passages of the source.
Tests used:
Solid Sarcoma 180 = assay: Antitumor activity and toxicity on solid Sarcoma 180 in CD 1 mice; assay type: in vivo; details: for Tumor Volume T/C %: 11th day; for Toxic Deaths: deaths/total
Method: (§1) The toxicity of the test compounds was evaluated by macroscopic autoptic examination mainly in terms of reduction in spleen size. The comparison of the effectiveness of the test compounds is based on the maximum increase in median survival time, as compared to untreated controls, over the dose range used. The number of Long Term Survivors (LTS) refers to tumor-free mice at the end of the experiment (60 days). Solid Sarcoma 180 was implanted subcutaneously by trocar in the flank of CD 1 mice according to standard methods. The mice were treated i.v. for 5 consecutive days, starting 1 day after the tumor implant. On the 11th day the tumor volume was measured by means of a caliper and evaluated according to the formula (a^2 × b)/2, a and b being the minimum and the maximum diameters respectively.

[1] = tested on: Moloney Sarcoma Virus (MSV); assay: Inhibition of MSV-M foci formation in mouse embryo fibroblasts; assay type: cell-based; details: Fibroblast, 120 h; for IC50: read-out: MSV-M foci ID 50 (Inhibiting Dose 50%)
Method: (§2) Mouse embryo fibroblasts (MEF) were plated on 35 mm. Falcon plastic dishes and infected 24 hours later with Moloney Sarcoma Virus (MSV) in the presence of DEAE-dextran (25 μg./ml.). The samples were then treated for 3 days with different concentrations of the compounds of the invention. The number of foci of transformed cells was microscopically determined 5 days after the infection. Uninfected MEF were similarly treated and at the end of the experiment, the cells were counted in an haemocytometer. In all the experiments, the cells were incubated in a 5% CO2 incubator at 37° C.
(§3) For use in these tests the compounds were dissolved in distilled water or in 5% ethyl alcohol in distilled water and then diluted in culture medium.
The results of these tests are reported in Table I in terms of ID50 values (Inhibiting Dose 50%), calculated on dose-effects lines.

[2] = Proliferation of uninfected mouse embryo fibroblasts (MEF); assay type: cell-based; details: mouse, mouse embryo fibroblasts
Method: as §2, §3

Mouse Embryo Fibroblasts = assay: as above; assay type: cell-based; details: Mus musculus, Fibroblast, 72 h, read-out: MEF No. of cells
Method: as §2, §3

ascites Sarcoma 180 = assay: Antitumor activity and toxicity on ascites Sarcoma 180 in CD 1 mice; assay type: in vivo; details: for % LTS: 60 days; for LTS (Long Term Survivors after 60 days): survivors/total; for Toxic Deaths: deaths/total
Method: (§4) The antitumor activity of the compounds of the invention was tested on ascites Sarcoma 180.
(§5) Three month old CD 1 mice were used. Sarcoma 180 ascites cells were inoculated intraperitoneally (10^6 cells/mouse). For use in these tests, the compounds were dissolved in distilled water or in 5% ethyl alcohol in distilled water, then diluted with Ringers solution and administered i.p. 1 day after the tumor implant (10 ml./kg. of body weight).
as §1

[3] = as above; assay type: in vivo; details: mouse, in vivo, ip, read-out: % Toxic Deaths
Method: as §4, §5, §1

[4] = 3 mg./kg. i.v. for 5 consecutive days
[5] = 4 mg./kg. i.v. for 5 consecutive days
[6] = 5 mg./kg. i.v. for 5 consecutive days
[7] = 0.2 mg./kg. i.p. 1 day after tumor implant
[8] = 1 mg./kg. i.p. 1 day after tumor implant
[9] = 5 mg./kg. i.p. 1 day after tumor implant
[10] = 25 mg./kg. i.p. 1 day after tumor implant
[11] = 50 mg./kg. i.p. 1 day after tumor implant
[12] = 100 mg./kg. i.p. 1 day after tumor implant

## COc1cccc2c1C(=O)c1c(O)c3c(c(O)c1C2=O)C[C@@](O)(C(=O)CN1CCOCC1)C[C@@H]3O[C@H]1C[C@H](N)[C@H](O)[C@H](C)O1 [14-(N-morpholino)-daunomycin]
Solid Sarcoma 180; [4]
  Tumor Volume T/C %: 77%
  Toxic Deaths: 0/10
Solid Sarcoma 180; [5]
  Tumor Volume T/C %: 64%
  Toxic Deaths: 0/10
Solid Sarcoma 180; [6]
  Tumor Volume T/C %: 69%
  Toxic Deaths: 0/10
[1]; calculated on dose-effects lines, 3 days treatment
  IC50: 0.032 µg/mL (≈ 0.0522 µM)
[1]; dose 0.0062 μg/ml, 3 days treatment, foci counted 5 days after infection, read-out: MSV-M No. of foci
  activity at 0.0062 µg/mL: 78%
[1]; dose 0.0250 μg/ml, 3 days treatment, foci counted 5 days after infection, read-out: MSV-M No. of foci
  activity at 0.025 µg/mL: 69%
[1]; dose 0.1 μg/ml, 3 days treatment, foci counted 5 days after infection, read-out: MSV-M No. of foci
  activity at 0.1 µg/mL: 17%
[1]; dose 0.4 μg/ml, 3 days treatment, foci counted 5 days after infection, read-out: MSV-M No. of foci
  activity at 0.4 µg/mL: 0%
[2]; calculated on dose-effects lines, uninfected MEF, 3 days treatment, read-out: MEF proliferation ID 50 (Inhibiting Dose 50%)
  IC50 at 72 h: 0.5 µg/mL (≈ 0.816 µM)
Mouse Embryo Fibroblasts; dose 0.0062 μg/ml, uninfected MEF, 3 days treatment
  activity at 0.0062 µg/mL: 81%
Mouse Embryo Fibroblasts; dose 0.0250 μg/ml, uninfected MEF, 3 days treatment
  activity at 0.025 µg/mL: 68%
Mouse Embryo Fibroblasts; dose 0.1 μg/ml, uninfected MEF, 3 days treatment
  activity at 0.1 µg/mL: 31%
Mouse Embryo Fibroblasts; dose 0.4 μg/ml, uninfected MEF, 3 days treatment
  activity at 0.4 µg/mL: 21%
Ascites Sarcoma 180; [7]
  T/C (median survival time, % over untreated controls): 103%
  % LTS: 0%
  LTS (Long Term Survivors after 60 days): 0/10
Ascites Sarcoma 180; 0.2 mg./kg. i.p.
  Toxic Deaths: 0/10
Ascites Sarcoma 180; [8]
  T/C (median survival time, % over untreated controls): 111%
  % LTS: 0%
  LTS (Long Term Survivors after 60 days): 0/10
Ascites Sarcoma 180; 1 mg./kg. i.p.
  Toxic Deaths: 0/10
Ascites Sarcoma 180; [9]
  T/C (median survival time, % over untreated controls): 133%
  % LTS: 30%
  LTS (Long Term Survivors after 60 days): 3/10
Ascites Sarcoma 180; 5 mg./kg. i.p.
  Toxic Deaths: 0/10
Ascites Sarcoma 180; [10]
  T/C (median survival time, % over untreated controls): 223%
  % LTS: 29%
  LTS (Long Term Survivors after 60 days): 5/17
Ascites Sarcoma 180; 25 mg./kg. i.p.
  Toxic Deaths: 0/17
Ascites Sarcoma 180; [11]
  T/C (median survival time, % over untreated controls): 100%
  % LTS: 0%
  LTS (Long Term Survivors after 60 days): 0/7
Ascites Sarcoma 180; 50 mg./kg. i.p.
  Toxic Deaths: 1/7
Ascites Sarcoma 180; [12]
  T/C (median survival time, % over untreated controls): 50%
  % LTS: 14%
  LTS (Long Term Survivors after 60 days): 1/7
Ascites Sarcoma 180; 100 mg./kg. i.p.
  Toxic Deaths: 6/7
[3]; 0.2 mg./kg. i.p.
  mortality: 0%
[3]; 1 mg./kg. i.p.
  mortality: 0%
[3]; 5 mg./kg. i.p.
  mortality: 0%
[3]; 25 mg./kg. i.p.
  mortality: 0%
[3]; 50 mg./kg. i.p.
  mortality: 14%
[3]; 100 mg./kg. i.p.
  mortality: 85%

## COc1cccc2c1C(=O)c1c(O)c3c(c(O)c1C2=O)C[C@@](O)(C(C)=O)C[C@@H]3O[C@H]1C[C@H](N)[C@H](O)[C@H](C)O1 [Daunomycin]
[1]; read-out: MSV-M No. of foci
  activity at 0.0062 µg/mL: 51%
  activity at 0.0125 µg/mL: 17%
  activity at 0.025 µg/mL: 0%
[1]
  IC50: 0.006 µg/mL (≈ 0.0114 µM)
[2]
  IC50 at 72 h: 0.0086 µg/mL (≈ 0.0163 µM)
Mouse Embryo Fibroblasts
  activity at 0.0062 µg/mL: 55%
  activity at 0.0125 µg/mL: 45%
  activity at 0.025 µg/mL: 22%
Ascites Sarcoma 180; [7]
  T/C (median survival time, % over untreated controls): 106%
  % LTS: 5%
  LTS (Long Term Survivors after 60 days): 1/20
Ascites Sarcoma 180; 0.2 mg./kg. i.p.
  Toxic Deaths: 0/20
Ascites Sarcoma 180; [8]
  T/C (median survival time, % over untreated controls): 193%
  % LTS: 45%
  LTS (Long Term Survivors after 60 days): 9/20
Ascites Sarcoma 180; 1 mg./kg. i.p.
  Toxic Deaths: 0/20
Ascites Sarcoma 180; [9]
  T/C (median survival time, % over untreated controls): 173%
  % LTS: 15%
  LTS (Long Term Survivors after 60 days): 3/20
Ascites Sarcoma 180; 5 mg./kg. i.p.
  Toxic Deaths: 3/20
[3]; 0.2 mg./kg. i.p.
  mortality: 0%
[3]; 1 mg./kg. i.p.
  mortality: 0%
[3]; 5 mg./kg. i.p.
  mortality: 15%

Reference: patent US4024224A, “14-Aminodaunomycins, their preparation and use” (priority 1974, dated 1977)
